Data from paper PMC10924156, “Design, Preclinical Evaluation, and Clinical Translation of ^68Ga-FAPI-LM3, a Heterobivalent Molecule for PET Imaging of Nasopharyngeal Carcinoma” (Journal of Nuclear Medicine, 2024).
Positions of bridges follow the written chain, without caps; N, C: chain ends. Non-standard residues stand in square brackets, D forms with d. Residues, ends and D or L forms follow the SMILES beside them. *: point of attachment. DOTA = O=C(O)CN1CCN(CC(=O)O)CCN(CC(=O)*)CCN(CC(=O)O)CC1; dPhe(4-NHCONH2) = NC(=O)Nc1ccc(C[C@@H](N)C(=O)O)cc1; Phe(4-Cl) = N[C@@H](Cc1ccc(Cl)cc1)C(=O)O

How the values were obtained:
[1] = set-up: method as in 2 sources, ref 21 = [21]; PMID 30072500; doi:10.2967/jnumed.118.215913; 21. Giesel FL Kratochwil C Lindner T . 68 Ga-FAPI PET/CT: biodistribution and preliminary dosimetry estimate of 2 DOTA-containing FAP-targeting agents in patients with various cancers . J Nucl Med. 20 ||| ref 15 = [15]; PMID 33579804; doi:10.2967/jnumed.120.253096; 15. Zhu W Cheng Y Jia R . A prospective, randomized, double-blind study to evaluate the safety, biodistribution, and dosimetry of 68 Ga-NODAGA-LM3 and 68 Ga-DOTA-LM3 in patients with well-differentiat; conditions: in vivo; cited from earlier work
Small-animal PET imaging = conditions: BALB/c nude, mouse, tumor (HT-1080-FAP plus HT-1080-SSTR2 xenograft), iv, 7.4 MBq, total radioactivity, tumor uptake (PET), i.v. approx 7.4 MBq, 3 mice/group
Description: (§1) Tumor-bearing mice (3/group) were intravenously injected with approximately 7.4 MBq of ^68Ga-FAPI-LM3, ^68Ga-FAPI-46, or ^68Ga-DOTA-LM3. Subsequent static PET scans were obtained at intervals of 0.5, 1, 2, and 4 h after injection using an Inveon small-animal PET scanner (Siemens). In the blocking experiment, approximately 60 nmol of the unlabeled precursor (FAPI-46, DOTA-LM3, or FAPI-46 plus DOTA-LM3) were simultaneously injected with ^68Ga-FAPI-LM3. The PET images were reconstructed iteratively using 3-dimensional OpMAP 256 (PET reconstruction protocol [.pPetRcn]; Siemens Healthineers AG) and converted to percentage injected dose per gram of tissue (%ID/g) by delineating the regions of interest. For the biodistribution studies, approximately 1.48 MBq of ^68Ga-FAPI-LM3, ^68Ga-FAPI-46, ^68Ga-DOTA-LM3, or ^68Ga-FAPI-LM3 with unlabeled precursor were injected into tumor-bearing mice (3/group), and different groups of mice were euthanized at the scheduled time points after injection.

[2] = Ex vivo biodistribution study; conditions: BALB/c nude, mouse, tumor (HT-1080-FAP plus HT-1080-SSTR2 xenograft), 1.48 MBq, total radioactivity
Description: as §1

Structure (SMILES): C[C@@H](O)[C@@H]1NC(=O)[C@H](CCCCN)NC(=O)[C@@H](Cc2ccc(NC(N)=O)cc2)NC(=O)[C@H](Cc2ccc(O)cc2)NC(=O)[C@H](NC(=O)[C@H](Cc2ccc(Cl)cc2)NC(=O)CN2CCN(CC(=O)O)CCN(CC(=O)O)CCN(CC(=O)O)CC2)CSSC[C@@H](C(=O)N[C@H](Cc2ccc(O)cc2)C(N)=O)NC1=O [^68Ga-DOTA-LM3, metal not drawn, reference compound] ({DOTA}-[Phe(4-Cl)][dC]Y[dPhe(4-NHCONH2)]KTC[dY]-NH2; disulfide 2-7)
- effective dose [1]: 2.50 × 10^−2 mSv/MBq
- tissue uptake at 1 h (Small-animal PET imaging; 1 h after injection): 5.93 ± 0.5 %ID/g
- tissue uptake at 4 h (Small-animal PET imaging; 4 h after injection): 4.46 ± 0.57 %ID/g
- tissue uptake at 1 h [2]: 7.88 ± 1.1 %ID/g
